Experimental data published in patent US6777412B2 (priority 1990, dated 2004).
Where two headings read alike, the source gives them in different places. Marks after values point to notes of the source that are not given here.

Legend:
Assay type in all cases: in vivo
Puccinia recondita = experiment: Foliar fungal disease test on plants: Puccinia recondita (Pr)
Experimental: (§1) The compounds were tested against a variety of foliar fungal diseases of plants. The technique employed was as follows.
(§2) The plants were grown in John Innes Potting Compost (No.1 or 2) in 4 cm diameter minipots. The test compounds were formulated either by bead milling with aqueous Dispersol T or as a solution in acetone or acetone/ethanol which was diluted to the required concentration immediately before use. For the foliage diseases, the formulations (100 ppm active ingredient except where otherwise indicated) were sprayed onto the foliage and applied to the roots of the plants in the soil. The sprays were applied to maximum retention and the root drenches to a final concentration equivalent to approximately 40 ppm a.i. in dry soil. Tween 20, to give a final concentration of 0.05%, was added when the sprays were applied to cereals.
(§3) For most of the tests the compound was applied to the soil (roots) and to the foliage (by spraying) one or two days before the plant was inoculated with the disease. An exception was the test on Erysiphe graminis in which the plants were inoculated 24 hours before treatment. Foliar pathogens were applied by spray as spore suspensions onto the leaves of test plants. After inoculation, the plants were put into an appropriate environment to allow infection to proceed and then incubated until the disease was ready for assessment. The period between inoculation and assessment varied from four to fourteen days according to the disease and environment.
(§4) The disease control vas recorded by the following grading:
(§5) 3=trace-5% of disease on untreated plants
(§6) 2=6-25% of disease on untreated plants
(§7) 1=26-59% of disease on untreated plants
(§8) 0=60-100% of disease on untreated plants

Septoria nodorum = experiment: Foliar fungal disease test on plants: Septoria nodorum (Sn)
Experimental: as §1, §2, §3, §4, §5, §6, §7, §8

Pyricularia oryzae = system: Pyricularia oryzae
Venturia inaequalis = experiment: Foliar fungal disease test on plants: Venturia inaequalis (Vi)
Experimental: as §1, §2, §3, §4, §5, §6, §7, §8

Plasmopara viticola = experiment: Foliar fungal disease test on plants: Plasmopara viticola (Pv)
Experimental: as §1, §2, §3, §4, §5, §6, §7, §8

[1] = system: Phytophthora infestans lycopersici
[2] = system: Erysiphe graminis tritici; experiment: Foliar fungal disease test on plants: Erysiphe graminis tritici (Egt)
Experimental: as §1, §2, §3, §4, §5, §6, §7, §8
Egt Erysiphe graminis tritici

[3] = 100 ppm active ingredient foliar spray plus root drench (approx. 40 ppm a.i. in dry soil), one or two days before inoculation
[4] = 100 ppm active ingredient foliar spray plus root drench (approx. 40 ppm a.i. in dry soil), plants inoculated 24 hours before treatment

CCOc1ccccc1Nc1cc(Oc2ccccc2/C(=C\OC)C(=O)OC)ncn1 [401 of Table I]
disease control grading, Pr (Puccinia recondita) (Puccinia recondita; [3]): 4 (4=no disease) | disease control grading, Sn (Septoria nodorum) (Septoria nodorum; [3]): 4 (4=no disease) | disease control grading, Po (Pyricularia oryzae) (Pyricularia oryzae; [3]): 0 (0=60-100% of disease on untreated plants) | disease control grading, Vi (Venturia inaegualis) (Venturia inaequalis; [3]): 4 (4=no disease) | disease control grading, Pv (Plasmopara viticola) (Plasmopara viticola; [3]): 4 (4=no disease) | disease control grading, Pil (Phytophthora infestans lycopersici) [1, 3]: 3 (3=trace-5% of disease on untreated plants) | disease control grading, Egt (Erysiphe graminis tritici) [2, 4]: 4 (4=no disease)

CO/C=C(/C(=O)OC)c1ccccc1Oc1cc(OCCOc2ccccc2C#N)ncn1 [396 of Table I]
disease control grading, Pr (Puccinia recondita) (Puccinia recondita; [3]): 4 (4=no disease) | disease control grading, Sn (Septoria nodorum) (Septoria nodorum; [3]): 4 (4=no disease) | disease control grading, Po (Pyricularia oryzae) (Pyricularia oryzae; [3]): 4 (4=no disease) | disease control grading, Vi (Venturia inaegualis) (Venturia inaequalis; [3]): 3 (3=trace-5% of disease on untreated plants) | disease control grading, Pv (Plasmopara viticola) (Plasmopara viticola; [3]): 4 (4=no disease) | disease control grading, Egt (Erysiphe graminis tritici) [2, 4]: 4 (4=no disease)

CO/C=C(/C(=O)OC)c1ccccc1Oc1cc(-c2c(N)oc3ccccc23)ncn1 [400 of Table I]
disease control grading, Pr (Puccinia recondita) (Puccinia recondita; [3]): 4 (4=no disease) | disease control grading, Sn (Septoria nodorum) (Septoria nodorum; [3]): 4 (4=no disease) | disease control grading, Po (Pyricularia oryzae) (Pyricularia oryzae; [3]): 0 (0=60-100% of disease on untreated plants) | disease control grading, Vi (Venturia inaegualis) (Venturia inaequalis; [3]): 4 (4=no disease) | disease control grading, Pv (Plasmopara viticola) (Plasmopara viticola; [3]): 4 (4=no disease) | disease control grading, Pil (Phytophthora infestans lycopersici) [1, 3]: 4 (4=no disease) | disease control grading, Egt (Erysiphe graminis tritici) [2, 4]: 4 (4=no disease)

CO/C=C(/C(=O)OC)c1ccccc1Oc1cc(Sc2nc3ccccc3s2)ncn1 [530 of Table I]
disease control grading, Pr (Puccinia recondita) (Puccinia recondita; [3]): 3 (3=trace-5% of disease on untreated plants) | disease control grading, Sn (Septoria nodorum) (Septoria nodorum; [3]): 4 (4=no disease) | disease control grading, Po (Pyricularia oryzae) (Pyricularia oryzae; [3]): 0 (0=60-100% of disease on untreated plants) | disease control grading, Vi (Venturia inaegualis) (Venturia inaequalis; [3]): 4 (4=no disease) | disease control grading, Pv (Plasmopara viticola) (Plasmopara viticola; [3]): 4 (4=no disease) | disease control grading, Pil (Phytophthora infestans lycopersici) [1, 3]: 4 (4=no disease) | disease control grading, Egt (Erysiphe graminis tritici) [2, 4]: 4 (4=no disease)

CO/C=C(/C(=O)OC)c1ccccc1Oc1cc(Cc2ccccc2)ncn1 [9 of Table I]
disease control grading, Pr (Puccinia recondita) (Puccinia recondita; [3]): 0 (0=60-100% of disease on untreated plants) | disease control grading, Sn (Septoria nodorum) (Septoria nodorum; [3]): 4 (4=no disease) | disease control grading, Po (Pyricularia oryzae) (Pyricularia oryzae; [3]): 4 (4=no disease) | disease control grading, Vi (Venturia inaegualis) (Venturia inaequalis; [3]): 4 (4=no disease) | disease control grading, Pv (Plasmopara viticola) (Plasmopara viticola; [3]): 4 (4=no disease) | disease control grading, Pil (Phytophthora infestans lycopersici) [1, 3]: 4 (4=no disease) | disease control grading, Egt (Erysiphe graminis tritici) [2, 4]: 4 (4=no disease)

CO/C=C(/C(=O)OC)c1ccccc1Oc1cc(O/N=C(\C)c2cnccn2)ncn1 [404 of Table I]
disease control grading, Pr (Puccinia recondita) (Puccinia recondita; [3]): 4 (4=no disease) | disease control grading, Sn (Septoria nodorum) (Septoria nodorum; [3]): 3 (3=trace-5% of disease on untreated plants) | disease control grading, Po (Pyricularia oryzae) (Pyricularia oryzae; [3]): 3 (3=trace-5% of disease on untreated plants) | disease control grading, Vi (Venturia inaegualis) (Venturia inaequalis; [3]): 4 (4=no disease) | disease control grading, Pv (Plasmopara viticola) (Plasmopara viticola; [3]): 4 (4=no disease) | disease control grading, Pil (Phytophthora infestans lycopersici) [1, 3]: 1 (1=26-59% of disease on untreated plants) | disease control grading, Egt (Erysiphe graminis tritici) [2, 4]: 4 (4=no disease)

CO/C=C(/C(=O)OC)c1ccccc1Oc1cc(OCc2ccc(F)cc2)ncn1 [405 of Table I]
disease control grading, Pr (Puccinia recondita) (Puccinia recondita; [3]): 4 (4=no disease) | disease control grading, Sn (Septoria nodorum) (Septoria nodorum; [3]): 0 (0=60-100% of disease on untreated plants) | disease control grading, Po (Pyricularia oryzae) (Pyricularia oryzae; [3]): 4 (4=no disease) | disease control grading, Vi (Venturia inaegualis) (Venturia inaequalis; [3]): 4 (4=no disease) | disease control grading, Pv (Plasmopara viticola) (Plasmopara viticola; [3]): 4 (4=no disease) | disease control grading, Pil (Phytophthora infestans lycopersici) [1, 3]: 4 (4=no disease) | disease control grading, Egt (Erysiphe graminis tritici) [2, 4]: 4 (4=no disease)

CO/C=C(/C(=O)OC)c1ccccc1Oc1cc(OCCOc2c(F)cccc2C#N)ncn1 [397 of Table I]
disease control grading, Pr (Puccinia recondita) (Puccinia recondita; [3]): 4 (4=no disease) | disease control grading, Sn (Septoria nodorum) (Septoria nodorum; [3]): 3 (3=trace-5% of disease on untreated plants) | disease control grading, Po (Pyricularia oryzae) (Pyricularia oryzae; [3]): 4 (4=no disease) | disease control grading, Vi (Venturia inaegualis) (Venturia inaequalis; [3]): 4 (4=no disease) | disease control grading, Pv (Plasmopara viticola) (Plasmopara viticola; [3]): 4 (4=no disease) | disease control grading, Pil (Phytophthora infestans lycopersici) [1, 3]: 3 (3=trace-5% of disease on untreated plants) | disease control grading, Egt (Erysiphe graminis tritici) [2, 4]: 4 (4=no disease)

CO/C=C(/C(=O)OC)c1ccccc1Oc1cc(-c2sc(-c3ccccc3O)nc2C)ncn1 [399 of Table I]
disease control grading, Pr (Puccinia recondita) (Puccinia recondita; 10 ppm foliar application only): 0^a (0=60-100% of disease on untreated plants) | disease control grading, Sn (Septoria nodorum) (Septoria nodorum; 10 ppm foliar application only): 0^a (0=60-100% of disease on untreated plants) | disease control grading, Po (Pyricularia oryzae) (Pyricularia oryzae; 10 ppm foliar application only): 0^a (0=60-100% of disease on untreated plants) | disease control grading, Vi (Venturia inaegualis) (Venturia inaequalis; 10 ppm foliar application only): 3^a (3=trace-5% of disease on untreated plants) | disease control grading, Pv (Plasmopara viticola) (Plasmopara viticola; 10 ppm foliar application only): 4^a (4=no disease) | disease control grading, Pil (Phytophthora infestans lycopersici) ([1]; 10 ppm foliar application only): 0^a (0=60-100% of disease on untreated plants) | disease control grading, Egt (Erysiphe graminis tritici) ([2]; 10 ppm foliar application only): 0^a (0=60-100% of disease on untreated plants)

CO/C=C(/C(=O)OC)c1ccccc1Oc1cc(OCc2ccncc2)ncn1 [236 of Table I]
disease control grading, Pr (Puccinia recondita) (Puccinia recondita; [3]): 4 (4=no disease) | disease control grading, Sn (Septoria nodorum) (Septoria nodorum; [3]): 3 (3=trace-5% of disease on untreated plants) | disease control grading, Po (Pyricularia oryzae) (Pyricularia oryzae; [3]): 2 (2=6-25% of disease on untreated plants) | disease control grading, Vi (Venturia inaegualis) (Venturia inaequalis; [3]): 4 (4=no disease) | disease control grading, Pv (Plasmopara viticola) (Plasmopara viticola; [3]): 4 (4=no disease) | disease control grading, Pil (Phytophthora infestans lycopersici) [1, 3]: 4 (4=no disease) | disease control grading, Egt (Erysiphe graminis tritici) [2, 4]: 3 (3=trace-5% of disease on untreated plants)

CO/C=C(/C(=O)OC)c1ccccc1Oc1cc(OCc2cccnn2)ncn1 [271 of Table I]
disease control grading, Pr (Puccinia recondita) (Puccinia recondita; [3]): 4 (4=no disease) | disease control grading, Sn (Septoria nodorum) (Septoria nodorum; [3]): 2 (2=6-25% of disease on untreated plants) | disease control grading, Po (Pyricularia oryzae) (Pyricularia oryzae; [3]): 2 (2=6-25% of disease on untreated plants) | disease control grading, Vi (Venturia inaegualis) (Venturia inaequalis; [3]): 0 (0=60-100% of disease on untreated plants) | disease control grading, Pv (Plasmopara viticola) (Plasmopara viticola; [3]): 0 (0=60-100% of disease on untreated plants) | disease control grading, Pil (Phytophthora infestans lycopersici) [1, 3]: 2 (2=6-25% of disease on untreated plants) | disease control grading, Egt (Erysiphe graminis tritici) [2, 4]: 3 (3=trace-5% of disease on untreated plants)

CCCCOc1ccccc1Nc1cc(Oc2ccccc2/C(=C\OC)C(=O)OC)ncn1 [402 of Table I]
disease control grading, Pr (Puccinia recondita) (Puccinia recondita; [3]): 4 (4=no disease) | disease control grading, Sn (Septoria nodorum) (Septoria nodorum; [3]): 4 (4=no disease) | disease control grading, Po (Pyricularia oryzae) (Pyricularia oryzae; [3]): 0 (0=60-100% of disease on untreated plants) | disease control grading, Vi (Venturia inaegualis) (Venturia inaequalis; [3]): 4 (4=no disease) | disease control grading, Pv (Plasmopara viticola) (Plasmopara viticola; [3]): 4 (4=no disease) | disease control grading, Pil (Phytophthora infestans lycopersici) [1, 3]: 3 (3=trace-5% of disease on untreated plants) | disease control grading, Egt (Erysiphe graminis tritici) [2, 4]: 4 (4=no disease)

CO/C=C(/C(=O)OC)c1ccccc1Oc1cc(OC/C=C/c2ccccc2C#N)ncn1 [395 of Table I]
disease control grading, Pr (Puccinia recondita) (Puccinia recondita; [3]): 4 (4=no disease) | disease control grading, Sn (Septoria nodorum) (Septoria nodorum; [3]): 3 (3=trace-5% of disease on untreated plants) | disease control grading, Po (Pyricularia oryzae) (Pyricularia oryzae; [3]): 4 (4=no disease) | disease control grading, Vi (Venturia inaegualis) (Venturia inaequalis; [3]): 4 (4=no disease) | disease control grading, Pv (Plasmopara viticola) (Plasmopara viticola; [3]): 4 (4=no disease) | disease control grading, Egt (Erysiphe graminis tritici) [2, 4]: 4 (4=no disease)
